{"source": "patent US20060121016A1", "about": "“Methods and compositions for treatment of free radical injury” (priority 2004, published 2006)", "origin": "cited, not measured here", "conditions": "administered both before and after the operation"}
{"smiles": "Oc1ncnc2[nH]ncc12", "note": "[allopurinol]", "values": [{"measurement": "Reduction of incidence of complication following surgery", "value": 70, "unit": "%"}]}
